According to patent US12251459B2, “Compositions, formulations, and methods for hair treatment” (Oddity Labs, LLC, priority 2022, dated 2025):

test system: human hair follicle dermal papilla cells (hFDPC); test: Human follicle dermal papilla cells (hFDPC) proliferation assay; format: cell-based; details: hFDPCs supplemented with BIO, BMP-2 and FGFβ
Text: In Table 8, A represents less than 20% of increased proliferation of hFDPCs, B represents 20-40%, and C represents larger than 40% of increased proliferation of hFDPCs.

| SMILES | Percent Increase Proliferation of hFDPCs (%) |
| --- | --- |
| O=C(c1cccs1)N1CCN(C(=O)c2cccc3ccccc23)CC1 [VII-18, Piperazine, 1-(1-naphthalenylcarbonyl)-4-(2-thienylcarbonyl)-(9CI)] | A (A represents less than 20% of increased proliferation of hFDPCs) |
| COc1ccc(N2CCN(C(=O)c3cc(-c4cccs4)nc4ccccc34)CC2)cc1 [III-1, Methanone, [4-(4-methoxyphenyl)-1-piperazinyl][2-(2-thienyl)-4-quinolinyl]-] | A (A represents less than 20% of increased proliferation of hFDPCs) |
| Cc1cccc(CN2CCN(c3ncccn3)CC2)c1 [VII-15, Pyrimidine, 2-[4-[(3-methylphenyl)methyl]-1-piperazinyl]-] | A (A represents less than 20% of increased proliferation of hFDPCs) |
| COc1ccc(/C=C2\C(=O)NC(=O)N(C)C2=O)c(OC)c1 [I-11, 2,4,6(1H,3H,5H)-Pyrimidinetrione, 5-[(2,4-dimethoxyphenyl)methylene]-1-methyl-, (5E)-] | A (A represents less than 20% of increased proliferation of hFDPCs) |
| CC1(c2ccccc2)NC(=O)N(Cc2cc(=O)n3ccccc3n2)C1=O (stereo not shown) [VII-25, 2,4-Imidazolidinedione, 5-methyl-3-[(4-oxo-4H-pyrido[1,2-a]pyrimidin-2-yl)methyl]-5-phenyl-] | B (B represents 20-40%) |
| C=CCc1cc(/C=C2\C(=O)NC(=O)N(c3ccc(C)c(C)c3)C2=O)cc(OC)c1O [I-4] | A (A represents less than 20% of increased proliferation of hFDPCs) |
| Cc1ccccc1Cn1nc(C)c(NC(=O)c2csc3ccccc23)c1C [VII-26, Benzo[b]thiophene-3-carboxamide, N-[3,5-dimethyl-1-[(2-methylphenyl)methyl]-1H-pyrazol-4-yl]-] | A (A represents less than 20% of increased proliferation of hFDPCs) |
| CCOC(=O)c1cnn(-c2ccc(C(=O)Nc3ccc(C(=O)NCC(=O)OC)cc3)cc2)c1C [VII-6, 1H-Pyrazole-4-carboxylic acid, 1-[4-[[[4-[[(2-methoxy-2-oxoethyl)amino]carbonyl]phenyl]amino]carbonyl]phenyl]-5-methyl-, ethyl ester] | A (A represents less than 20% of increased proliferation of hFDPCs) |
| Cc1ccc(C(=O)N2CCN(c3nnc(-c4ccc(C)cc4)c4ccccc34)CC2)cc1 [II-2, Methanone, (4-methylphenyl)[4-[4-(4-methylphenyl)-1-phthalazinyl]-1-piperazinyl]-] | B (B represents 20-40%) |
| CCOCCc1nnc(NC(=O)c2cc(-c3ccccc3)nc3ccccc23)s1 [III-4, 4-Quinolinecarboxamide, N-[5-(2-ethoxyethyl)-1,3,4-thiadiazol-2-yl]-2-phenyl-] | B (B represents 20-40%) |
| CCCCN1CCc2cc(/C=C3\C(=O)NC(=O)N(C)C3=O)ccc21 [I-12, 2,4,6(1H,3H,5H)-Pyrimidinetrione, 5-[(1-butyl-2,3-dihydro-1H-indol-5-yl)methylene]-1-methyl-] | B (B represents 20-40%) |
| COc1ccc(S(=O)(=O)N2CCC(C(=O)N3CCN(Cc4ccc5c(c4)OCO5)CC3)CC2)cc1C [VI-3, Methanone, [4-(1,3-benzodioxol-5-ylmethyl)-1-piperazinyl][1-[(4-methoxy-3-methylphenyl)sulfonyl]-4-piperidinyl]-] | B (B represents 20-40%) |
| Cc1ccc(-c2nnc(N3CCN(C(=O)C4CCCCC4)CC3)c3ccccc23)cc1 [II-1, Methanone, cyclohexyl[4-[4-(4-methylphenyl)-1-phthalazinyl]-1-piperazinyl]-] | A (A represents less than 20% of increased proliferation of hFDPCs) |
| NC1=NC2(CCCCCC2)n2c(nc3ccccc32)N1 [VII-9, Spiro[cycloheptane-1, 4′(1′H)-[1,3,5]triazino[1,2-a]benzimidazol]-2′-amine] | B (B represents 20-40%) |
| Cc1ccc(OCC(=O)N2CCN(c3nnc(-c4ccc(C)cc4)c4ccccc34)CC2)cc1 [II-5, Ethanone, 2-(4-methylphenoxy)-1-[4-[4-(4-methylphenyl)-1-phthalazinyl]-1-piperazinyl]-] | B (B represents 20-40%) |
| CCCC(=O)N1CCN(c2nnc(-c3ccc(C)cc3)c3ccccc23)CC1 [II-6, 1-Butanone, 1-[4-[4-(4-methylphenyl)-1-phthalazinyl]-1-piperazinyl]-] | B (B represents 20-40%) |
| N#Cc1ccc(S(=O)(=O)N2CCC(C(=O)N3CCN(Cc4ccc5c(c4)OCO5)CC3)CC2)cc1 [VI-2, Benzonitrile, 4-[[4-[[4-(1,3-benzodioxol-5-ylmethyl)-1-piperazinyl]carbonyl]-1-piperidinyl]sulfonyl]-] | B (B represents 20-40%) |
| CN1C(=O)NC(=O)/C(=C\c2cccc(OCC(=O)O)c2)C1=O [I-14] | A (A represents less than 20% of increased proliferation of hFDPCs) |
| COc1cc([N+](=O)[O-])cc(/C=C2\C(=O)NC(=O)N(C)C2=O)c1O [I-15, 2,4,6(1H,3H,5H)-Pyrimidinetrione, 5-[(2-hydroxy-3-methoxy-5-nitrophenyl)methylene]-1-methyl-] | B (B represents 20-40%) |

| SMILES | Percent Increase Proliferation of hFDPCs (%) |
| --- | --- |
| C=CCc1cc(/C=C2\C(=O)NC(=S)N(C)C2=O)cc(OC)c1OCC [I-10] | A (A represents less than 20% of increased proliferation of hFDPCs) |
| C=CCOc1ccc(/C=C2/C(=O)NC(=O)N(CC=C)C2=O)cc1OC [I-7] | A (A represents less than 20% of increased proliferation of hFDPCs) |
| CCS(=O)(=O)n1[nH]c(-c2ccco2)nc1=N [VII-2, 1H-1,2,4-Triazol-5-amine, 1-(ethylsulfonyl)-3-(2-furanyl)-] | A (A represents less than 20% of increased proliferation of hFDPCs) |
| COc1cc(/C=C2\C(=O)NC(=O)N(Cc3ccccc3)C2=O)cc(OC)c1O [I-5, 2,4,6(1H,3H,5H)-Pyrimidinetrione, 5-[(4-hydroxy-3,5-dimethoxyphenyl)methylene]-1-(phenylmethyl)-] | B (B represents 20-40%) |
| Cc1ccc(-c2nn(CC(=O)NCCc3c(C)n(C)c4ccccc34)c(=O)c3ccccc23)cc1S(=O)(=O)N1CCOCC1 [VII-21, 2(1H)-Phthalazineacetamide, N-[2-(1,2-dimethyl-1H-indol-3-yl)ethyl]-4-[4-methyl-3-(4-morpholinylsulfonyl)phenyl]-1-oxo-] | A (A represents less than 20% of increased proliferation of hFDPCs) |
| CCN(Cc1ccccc1)C(=O)c1ccc(C(=O)N(CC)Cc2ccccc2)cc1 [VII-20, 1,4-Benzenedicarboxamide, N^1,N^4-diethyl-N^1, N^4-bis(phenylmethyl)-] | A (A represents less than 20% of increased proliferation of hFDPCs) |
| Cc1cc(C)n(Cc2ccc(NC(=O)c3cc(-c4ccc(C)c(C)c4)nc4ccccc34)cc2)n1 [III-3, 4-Quinolinecarboxamide, 2-(3,4-dimethylphenyl)-N-[4-[(3,5-dimethyl-1H-pyrazol-1-yl)methyl]phenyl]-] | B (B represents 20-40%) |
| C=CCc1cc(/C=C2\C(=O)NC(=O)N(c3ccc(C(C)C)cc3)C2=O)cc(OC)c1O [I-1] | A (A represents less than 20% of increased proliferation of hFDPCs) |
| CCn1c(SCC(=O)c2ccc(S(=O)(=O)N3CCCC3)cc2)nnc1-c1ccco1 [VII-4, Ethanone, 2-[[4-ethyl-5-(2-furanyl)-4H-1,2,4-triazol-3-yl]thio]-1-[4-(1-pyrrolidinylsulfonyl)phenyl]-] | A (A represents less than 20% of increased proliferation of hFDPCs) |
| C=CCc1cc(/C=C2\C(=O)NC(=O)N(C)C2=O)cc(OC)c1O [I-16] | A (A represents less than 20% of increased proliferation of hFDPCs) |
| C=CCc1cc(/C=C2\C(=O)NC(=O)N(c3cc(C)cc(C)c3)C2=O)cc(OCC)c1O [I-2, 2,4,6(1H,3H,5H)-Pyrimidinetrione, 1-(3,5-dimethylphenyl)-5-[[3-ethoxy-4-hydroxy-5-(2-propen-1-yl)phenyl]methylene]-] | B (B represents 20-40%) |
| NC1=NC2(CCCCC2)n2c(nc3ccccc32)N1 [VII-11, Spiro[cyclohexane-1, 4′(3′H)-[1,3,5]triazino[1,2-a]benzimidazol]-2′-amine] | A (A represents less than 20% of increased proliferation of hFDPCs) |
| CC1CCCCN1c1nc(-c2ccccc2)nc2sc(-c3ccccc3)cc12 (stereo not shown) [V-3, Thieno[2,3-d] pyrimidine, 4-(2-methyl-1-piperidinyl)-2,6-diphenyl-] | B (B represents 20-40%) |
| Cc1ccc(-n2ncc3c(N4CCCCC4)ncnc32)c(C)c1 [V-2, 1H-Pyrazolo[3,4-d] pyrimidine, 1-(2,4-dimethylphenyl)-4-(1-piperidinyl)-] | A (A represents less than 20% of increased proliferation of hFDPCs) |
| C=CCc1cc(C=C2C(=O)NC(=S)NC2=O)cc(OC)c1O [I-9, 4,6(1H,5H)-Pyrimidinedione, dihydro-5-[[4-hydroxy-3-methoxy-5-(2-propen-1-yl)phenyl]methylene]-2-thioxo-] | B (B represents 20-40%) |
| C=CCc1cc(C=C2C(=O)NC(=S)NC2=O)cc(OCC)c1O [I-8] | B (B represents 20-40%) |
| COC(=O)c1cccc(NC(=O)c2cc(NC(=O)c3ccccc3)cc(C(=O)Nc3cccc(C(=O)OC)c3)c2)c1 [VII-23, Benzoic acid, 3,3′-[[5-(benzoylamino)-1,3-phenylene]bis(carbonylimino)] bis-, dimethyl ester (9CI)] | B (B represents 20-40%) |
| O=C(O)CC1SC(NN=Cc2ccc(OS(=O)(=O)c3ccc([N+](=O)[O-])cc3)cc2)=NC1=O (stereo not shown) [VI-6, 5-Thiazoleacetic acid, 4,5-dihydro-2-[2-[[4-[[(4-nitrophenyl)sulfonyl]oxy]phenyl]methylene] hydrazinyl]-4-oxo-] | A (A represents less than 20% of increased proliferation of hFDPCs) |
